Test results: ChEMBL document CHEMBL1201862, “PubChem BioAssay data set” (2004)
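Results reflect a 48-hour exposure of cells in 96-well plates to compound at five concentrations. Here, GI50 denotes the concentration required for 50% inhibition of growth.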 Active and inactive are the calls of the source. Cut-off read from the data, not from the text of the source: active = GI50 up to about 1.1 µM and inactive = higher.

What was measured:
Experiment in all cases: DTP human tumour cell line panel, 48 h
786-0 = tested on: 786-0
A549 = tested on: A549
DU-145 = tested on: DU-145
HCT-116 = tested on: HCT-116
HOP-92 = tested on: HOP-92
Hs-578T = tested on: Hs-578T
M14 = tested on: M14
MDA-MB-231 = tested on: MDA-MB-231
MDA-MB-435 = tested on: MDA-MB-435
NCI/ADR-RES = tested on: NCI/ADR-RES
OVCAR-3 = tested on: OVCAR-3
OVCAR-4 = tested on: OVCAR-4
SF-539 = tested on: SF-539
SK-MEL-28 = tested on: SK-MEL-28
SK-OV-3 = tested on: SK-OV-3
SN12C = tested on: SN12C
SNB-19 = tested on: SNB-19
SNB-75 = tested on: SNB-75
T47D = tested on: T47D
TK-10 = tested on: TK-10

Measured: GI50

CC(=O)O/C(=C(/C#N)C(=O)O)C1C(C(=O)O)C(c2ccccc2[N+](=O)[O-])C=C(c2ccco2)N1c1ccncc1 (stereo not given)
inactive: 786-0 2.82 µM | A549 3.41 µM | DU-145 8.49 µM | HCT-116 1.52 µM | HOP-92 16 µM | Hs-578T 8.93 µM | M14 2.87 µM | MDA-MB-231 4.78 µM | MDA-MB-435 4.62 µM | NCI/ADR-RES 8.57 µM | OVCAR-3 2.94 µM | OVCAR-4 14.3 µM | SF-539 1.95 µM | SK-MEL-28 10.4 µM | SK-OV-3 11.6 µM | SN12C 4.86 µM | SNB-19 11.8 µM | SNB-75 6.38 µM | T47D 6.73 µM | TK-10 3.33 µM

CC(=O)Oc1ccc2ccc(=O)oc2c1OC(C)=O
inactive: 786-0 42.1 µM | A549 30.1 µM | DU-145 > 100 µM | HCT-116 36.3 µM | HOP-92 64.3 µM | Hs-578T 61.9 µM | M14 78 µM | MDA-MB-231 29.5 µM | MDA-MB-435 39.1 µM | NCI/ADR-RES 50.6 µM | OVCAR-3 29.9 µM | OVCAR-4 35 µM | SF-539 43.4 µM | SK-MEL-28 > 100 µM | SK-OV-3 73.1 µM | SN12C 19 µM | SNB-19 32.6 µM | SNB-75 66.5 µM | T47D 82.4 µM | TK-10 78.2 µM

C(=C\c1cccc(/C=C/c2ccccn2)n1)/c1ccccn1
inactive: 786-0 > 100 µM | A549 > 100 µM | DU-145 > 100 µM | HCT-116 68.9 µM | HOP-92 > 100 µM | Hs-578T 19.5 µM | M14 43.3 µM | MDA-MB-231 > 100 µM | MDA-MB-435 83.8 µM | NCI/ADR-RES 39.2 µM | OVCAR-3 79.3 µM | OVCAR-4 60.4 µM | SF-539 > 100 µM | SK-MEL-28 81.3 µM | SK-OV-3 > 100 µM | SN12C 60.7 µM | SNB-19 > 100 µM | SNB-75 37.4 µM | T47D 44.5 µM | TK-10 > 100 µM

OC1CCC(C2C3CCCCC3C3CCCCC3C2C2CCC(O)CC2)CC1 (stereo not given)
inactive: 786-0 4.16 µM | A549 4.18 µM | DU-145 5.37 µM | HCT-116 4.52 µM | HOP-92 8.05 µM | Hs-578T 7.28 µM | M14 5.19 µM | MDA-MB-231 3.27 µM | MDA-MB-435 4.19 µM | NCI/ADR-RES 4.58 µM | OVCAR-3 4.67 µM | OVCAR-4 4.04 µM | SF-539 10.6 µM | SK-MEL-28 3.83 µM | SK-OV-3 5.19 µM | SN12C 5.13 µM | SNB-19 6.44 µM | SNB-75 5.38 µM | T47D 5.26 µM | TK-10 5.18 µM
